System: SCZD hiPSC neurons
Format: cell-based, human

| Compound | rabies trans-neuronal tracing in the presence of drugs known to affect synaptic transmission |
| --- | --- |
| [Cl-].[K+] [KCl] | occurs |
| NC1=N[C@H](O)[C@H]2[C@H]3O[C@]4(O)O[C@@H]([C@@H](O)[C@@]2(N1)[C@@H]4O)[C@]3(O)CO [tetrodotoxin] | occurs |
| ryanodine | occurs |

Reference: patent US20120129835A1 (priority 2010, published 2012)
